The text below walks through data of patent publication US11661431B2, “Thienopyrrole compounds” (Gilead Sciences, Inc., priority 2021, dated 2023).

Each structure is given as a SMILES string.

One assay deals with TLR7 (Homo sapiens (Human), UniProt Q9NYK1). Put plainly: TLR7 human peripheral blood mononuclear cell (PBMC) cell-based assay (GS-986 as agonist; IL-6 and IFNα readout). The following applies: human PBMCs, TLR7 agonist GS-986 at 400 nM, 6 hours, antagonist potency; read-out: TLR-7 EC50. In short, it runs like this:
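Human PBMCs (100,000 cells/well) preincubated 1 h at 37 °C with antagonist in 10-point dose response, then stimulated with TLR7 agonist for a further 6 h at 37 °C, 5% CO2. Supernatant IL-6 and IFNα measured by electrochemiluminescence immunoassay.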

The target in the next assay is TLR8 (Homo sapiens (Human), UniProt Q9NR97). Put plainly: TLR8 human peripheral blood mononuclear cell (PBMC) cell-based assay (Compound A as agonist; TNFα and IL12p40 readout). The settings on record: human PBMCs, TLR8 agonist Compound A at 800 nM, 6 hours, antagonist potency; read-out: TLR-8 EC50.
TLR8, sequence (Q9NR97 27-1041): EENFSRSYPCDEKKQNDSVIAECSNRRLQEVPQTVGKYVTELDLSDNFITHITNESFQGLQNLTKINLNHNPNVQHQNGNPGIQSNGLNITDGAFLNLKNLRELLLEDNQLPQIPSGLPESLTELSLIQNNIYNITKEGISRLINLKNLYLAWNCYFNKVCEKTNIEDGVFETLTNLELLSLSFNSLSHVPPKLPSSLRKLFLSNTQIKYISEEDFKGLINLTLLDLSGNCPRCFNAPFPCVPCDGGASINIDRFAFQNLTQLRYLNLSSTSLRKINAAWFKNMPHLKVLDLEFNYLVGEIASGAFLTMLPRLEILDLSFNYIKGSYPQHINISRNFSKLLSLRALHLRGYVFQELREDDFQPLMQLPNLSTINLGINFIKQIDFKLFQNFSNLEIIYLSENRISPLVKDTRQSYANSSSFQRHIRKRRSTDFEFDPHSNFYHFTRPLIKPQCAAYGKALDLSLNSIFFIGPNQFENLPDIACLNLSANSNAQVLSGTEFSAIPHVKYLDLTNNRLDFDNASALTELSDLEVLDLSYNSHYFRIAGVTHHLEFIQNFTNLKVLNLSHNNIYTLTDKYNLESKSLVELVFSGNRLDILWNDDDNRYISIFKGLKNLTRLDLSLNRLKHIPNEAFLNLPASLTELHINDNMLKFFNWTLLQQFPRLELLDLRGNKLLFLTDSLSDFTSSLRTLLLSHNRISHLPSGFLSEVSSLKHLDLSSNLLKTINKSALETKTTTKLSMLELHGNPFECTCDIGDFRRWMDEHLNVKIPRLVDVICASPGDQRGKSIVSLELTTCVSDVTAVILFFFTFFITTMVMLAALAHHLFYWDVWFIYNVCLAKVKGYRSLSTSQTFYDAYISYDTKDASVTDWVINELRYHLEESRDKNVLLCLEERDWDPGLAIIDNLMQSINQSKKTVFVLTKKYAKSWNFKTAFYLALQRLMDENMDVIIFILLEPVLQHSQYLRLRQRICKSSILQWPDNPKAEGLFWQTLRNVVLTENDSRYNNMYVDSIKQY

TLR7, sequence (Q9NYK1 27-1049): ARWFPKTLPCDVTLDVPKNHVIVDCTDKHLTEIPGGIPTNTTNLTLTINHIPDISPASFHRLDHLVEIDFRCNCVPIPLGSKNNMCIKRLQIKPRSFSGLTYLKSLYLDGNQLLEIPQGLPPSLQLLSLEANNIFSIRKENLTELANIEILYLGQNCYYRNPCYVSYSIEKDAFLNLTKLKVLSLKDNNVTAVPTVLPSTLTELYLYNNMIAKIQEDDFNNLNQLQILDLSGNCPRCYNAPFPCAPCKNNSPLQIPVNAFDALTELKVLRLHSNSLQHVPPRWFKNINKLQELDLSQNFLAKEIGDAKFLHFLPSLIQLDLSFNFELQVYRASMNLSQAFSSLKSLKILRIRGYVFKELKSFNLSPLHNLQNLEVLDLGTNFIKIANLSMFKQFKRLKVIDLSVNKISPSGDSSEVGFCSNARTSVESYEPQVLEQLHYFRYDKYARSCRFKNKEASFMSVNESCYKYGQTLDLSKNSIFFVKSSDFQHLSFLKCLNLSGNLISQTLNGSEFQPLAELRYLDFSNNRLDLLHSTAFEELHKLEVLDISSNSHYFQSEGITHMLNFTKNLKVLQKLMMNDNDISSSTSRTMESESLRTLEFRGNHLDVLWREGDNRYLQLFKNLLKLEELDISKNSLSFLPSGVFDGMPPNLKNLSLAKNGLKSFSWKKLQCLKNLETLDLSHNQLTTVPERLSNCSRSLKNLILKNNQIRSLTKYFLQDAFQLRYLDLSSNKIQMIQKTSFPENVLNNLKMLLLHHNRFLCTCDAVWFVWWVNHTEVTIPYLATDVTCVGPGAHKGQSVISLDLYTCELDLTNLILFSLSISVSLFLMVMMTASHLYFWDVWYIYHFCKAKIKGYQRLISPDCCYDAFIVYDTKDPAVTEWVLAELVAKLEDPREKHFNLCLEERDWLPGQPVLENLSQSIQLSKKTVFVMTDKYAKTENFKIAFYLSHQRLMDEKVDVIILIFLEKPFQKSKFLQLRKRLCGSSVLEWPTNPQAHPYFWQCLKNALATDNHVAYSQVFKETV

The term EC50 denotes the concentration that produces a half-maximal response. For `Cc1c(-c2[nH]c3sc([C@@H]4C[C@@H]5C[C@H]4CN5Cc4cccc(=O)[nH]4)c(C)c3c2C(C)C)cn2ncnc2c1C` [Example 170], the EC50 is below 0.05 nM on TLR7 and 0.26 nM at TLR8.

Turning to `Cc1c(-c2[nH]c3sc([C@@H]4C[C@@H]5C[C@H]4CN5Cc4ccc[nH]c4=O)c(C)c3c2C(C)C)cn2ncnc2c1C` [Example 171], the EC50 on TLR7 is below 0.05 nM; at TLR8, 0.06 nM.

For `Cc1c(-c2[nH]c3sc([C@@H]4C[C@@H]5C[C@H]4CN5Cc4cccn(C(F)F)c4=O)c(C)c3c2C(C)C)cn2ncnc2c1C` [Example 172], the EC50 on TLR7 is 3.03 nM; on TLR8, 0.82 nM.

On to `Cc1c(-c2[nH]c3sc([C@@H]4C[C@@H]5C[C@H]4CN5CC4(F)COC4)c(C)c3c2C(C)C)cn2ncnc2c1C` [Example 173], for which the concentration giving a half-maximal response (EC50) was determined as 0.15 nM on TLR7 and 1.06 nM on TLR8.

As to `Cc1c(-c2[nH]c3sc([C@@H]4C[C@@H]5C[C@H]4CN5Cc4c[nH]nn4)c(C)c3c2C(C)C)cn2ncnc2c1C` [Example 174], the concentration giving a half-maximal response (EC50) on TLR7 is below 0.05 nM; on TLR8, 0.09 nM.

Take `Cc1c(-c2[nH]c3sc([C@@H]4C[C@@H]5C[C@H]4CN5Cc4nnc[nH]4)c(C)c3c2C(C)C)cn2ncnc2c1C` [Example 176]: the EC50 at TLR7 stood at 0.08 nM; at TLR8 it was 0.12 nM.

On to `Cc1c(-c2[nH]c3sc([C@@H]4C[C@@H]5C[C@H]4CN5Cc4cc[nH]c(=O)c4)c(C)c3c2C(C)C)cn2ncnc2c1C` [Example 177], for which the EC50 was found to be 0.5 nM at TLR7 and 0.07 nM on TLR8.

Turning to `Cc1c(-c2[nH]c3sc([C@@H]4C[C@@H]5C[C@H]4CN5Cc4ccc(=O)[nH]c4)c(C)c3c2C(C)C)cn2ncnc2c1C` [Example 178], the EC50 on TLR7 came out at 0.06 nM; at TLR8, 0.16 nM.

In the case of `Cc1c(-c2[nH]c3sc([C@@H]4C[C@@H]5C[C@H]4CN5CC(=O)OC(C)(C)C)c(C)c3c2C(C)C)cn2ncnc2c1C` [Example 179, tert-butyl 2-((1S,4R,5R)-5-(5-(7,8-dimethyl-[1,2,4]triazolo[1,5-a]pyridin-6-yl)-4-isopropyl-3-methyl-6H-thieno[2,3-b]pyrrol-2-yl)-2-azabicyclo[2.2.1]heptan-2-yl)acetate], the results for the EC50 on TLR7 and on TLR8 were 1.71 nM and 3.53 nM, respectively.

Consider `Cc1c(-c2[nH]c3sc([C@@H]4C[C@@H]5C[C@H]4CN5CCS(N)(=O)=O)c(C)c3c2C(C)C)cn2ncnc2c1C` [Example 180], for which the EC50 at TLR7 is below 0.05 nM; at TLR8, 0.17 nM.

Turning to `Cc1c(-c2[nH]c3sc([C@@H]4C[C@@H]5C[C@H]4CN5CCS(=O)(=O)N(C)C)c(C)c3c2C(C)C)cn2ncnc2c1C` [Example 181], the values for the EC50 at TLR7 and at TLR8 were 0.27 nM and 1.23 nM, respectively.

Consider `CNS(=O)(=O)CCN1C[C@@H]2C[C@H]1C[C@H]2c1sc2[nH]c(-c3cn4ncnc4c(C)c3C)c(C(C)C)c2c1C` [Example 182], for which the EC50 was determined as 0.07 nM at TLR7 and 0.32 nM on TLR8.

With `Cc1c(-c2[nH]c3sc([C@@H]4C[C@@H]5C[C@H]4CN5CC(=O)NC4CC4)c(C)c3c2C(C)C)cn2ncnc2c1C` [Example 184], the half-maximal effective concentration (EC50) was 1.27 nM on TLR7 and 0.34 nM on TLR8.

Take `Cc1c(-c2[nH]c3sc([C@@H]4C[C@@H]5C[C@H]4CN5CC(=O)NC(C)C)c(C)c3c2C(C)C)cn2ncnc2c1C` [Example 185]: the figures for the EC50 on TLR7 and on TLR8 were 1.89 nM and 0.57 nM, respectively.

In the case of `CCNC(=O)CN1C[C@@H]2C[C@H]1C[C@H]2c1sc2[nH]c(-c3cn4ncnc4c(C)c3C)c(C(C)C)c2c1C` [Example 186], the EC50 at TLR7 came out at 0.66 nM; at TLR8, 0.45 nM.

On to `Cc1c(-c2[nH]c3sc(C4CC5(CC(N)C5)C4)c(C)c3c2C(C)C)cn2ncnc2c1C` (stereo not shown) [Example 187], for which the EC50 on TLR7 turned out to be 0.2 nM; at TLR8, 1.09 nM.

In the case of `Cc1c(-c2[nH]c3sc(C4CC5(C4)CC(N(C4COC4)C4COC4)C5)c(C)c3c2C(C)C)cn2ncnc2c1C` (stereo not shown) [Example 188], the figures for the concentration giving a half-maximal response (EC50) on TLR7 and on TLR8 were 5.64 nM and 27.2 nM, respectively.

Regarding `Cc1c(C2C[C@H]3CC[C@@H]2CN3)sc2[nH]c(-c3cc(C)c4ncnn4c3)c(C(C)C)c12` (stereo partly shown) [Example 189], the EC50 at TLR7 was 2.23 nM; at TLR8, 30.9 nM.

`Cc1c(C2CC2C(=O)N2CCNCC2)sc2[nH]c(-c3cc(C)c4ncnn4c3)c(C(C)C)c12` (stereo not shown) [Example 192]: the EC50 at TLR7 was 274 nM; at TLR8, above 1000 nM.

With `Cc1c(C23CNCC2C3)sc2[nH]c(-c3cc(C)c4ncnn4c3)c(C(C)C)c12` (stereo not shown) [Example 193], the EC50 was 0.2 nM at TLR7 and 2.87 nM at TLR8.

Turning to `Cc1c(C23CNCCC2C3)sc2[nH]c(-c3cc(C)c4ncnn4c3)c(C(C)C)c12` (stereo not shown) [Example 194], the EC50 at TLR7 is 0.2 nM; at TLR8, 9.52 nM.

Regarding `Cc1c(C23CCNCC2C3)sc2[nH]c(-c3cc(C)c4ncnn4c3)c(C(C)C)c12` (stereo not shown) [Example 195], the EC50 at TLR7 was 0.05 nM; on TLR8 it was 2.12 nM.

Take `Cc1c(C23CC2CCN(CC(N)=O)C3)sc2[nH]c(-c3cc(C)c4ncnn4c3)c(C(C)C)c12` (stereo not shown) [Example 196]: the figures for the EC50 on TLR7 and at TLR8 were 0.72 nM and 69.5 nM, respectively.

For the compound `Cc1c(C23CC2CN(CC(N)=O)C3)sc2[nH]c(-c3cc(C)c4ncnn4c3)c(C(C)C)c12` (stereo not shown) [Example 197], the EC50 is 1.74 nM at TLR7 and 29.8 nM on TLR8.

`Cc1c(C23CNCC2C3(F)F)sc2[nH]c(-c3cc(C)c4ncnn4c3)c(C(C)C)c12` (stereo not shown) [Example 198]: the EC50 came out at 5.06 nM on TLR7 and 13.8 nM on TLR8.

On to `Cc1c(C23CCN(CC(N)=O)CC2C3)sc2[nH]c(-c3cc(C)c4ncnn4c3)c(C(C)C)c12` (stereo not shown) [Example 199], for which the EC50 on TLR7 turned out to be 0.47 nM; on TLR8, 14.8 nM.

As to `Cc1c(C23CN(CC(N)=O)CC2C3(F)F)sc2[nH]c(-c3cc(C)c4ncnn4c3)c(C(C)C)c12` (stereo not shown) [Example 200], the EC50 at TLR7 was found to be 4.05 nM; on TLR8, 332 nM.

With `Cc1c(C2C3CNCC32)sc2[nH]c(-c3cc(C)c4ncnn4c3)c(C(C)C)c12` (stereo not shown) [Example 201], the values for the EC50 on TLR7 and at TLR8 were below 0.05 nM and 0.36 nM, respectively.

As to `Cc1c(C2C3CN(CC(N)=O)CC32)sc2[nH]c(-c3cc(C)c4ncnn4c3)c(C(C)C)c12` (stereo not shown) [Example 202], the EC50 amounted to 2.59 nM on TLR7 and 2.97 nM at TLR8.

On to `Cc1c(CCC2CCN(CC(N)=O)CC2)sc2[nH]c(-c3cc(C)c4ncnn4c3)c(C(C)C)c12` [Example 203], for which the EC50 on TLR7 was determined as 4.2 nM; at TLR8, 6.23 nM.

For `Cc1c(C23CCNCC2C3(F)F)sc2[nH]c(-c3cc(C)c4ncnn4c3)c(C(C)C)c12` (stereo not shown) [Example 204], the EC50 was 0.5 nM on TLR7 and 30.4 nM on TLR8.

`Cc1c(C23CCN(CC(N)=O)CC2C3(F)F)sc2[nH]c(-c3cc(C)c4ncnn4c3)c(C(C)C)c12` (stereo not shown) [Example 205]: the EC50 on TLR7 stood at 0.6 nM; on TLR8, 230 nM.

With `CCc1c(C2CCN(CC(N)=O)CC2)sc2[nH]c(-c3cc(C)c4ncnn4c3)c(C(C)C)c12` [Example 206], the EC50 turned out to be 0.18 nM at TLR7 and 45.1 nM on TLR8.

Turning to `CCc1c(C2CCN(C(=O)[C@@H]3COCCN3)CC2)sc2[nH]c(-c3cc(C)c4ncnn4c3)c(C(C)C)c12` [Example 207], the EC50 at TLR7 turned out to be 0.19 nM; at TLR8, 32.2 nM.

Take `CCc1c(C2CCN(C(=O)[C@H]3COCCN3)CC2)sc2[nH]c(-c3cc(C)c4ncnn4c3)c(C(C)C)c12` [Example 208]: the EC50 on TLR7 was determined as 0.15 nM; at TLR8 it was 34.6 nM.
